According to ChEMBL document CHEMBL1201862, “PubChem BioAssay data set” (2004):
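Dose response: 5 concentrations. Exposure: 48 h. Format: 96-well plates. Endpoint: linear interpolation; highest concentration if not reached. At the GI50, growth is halved.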 Activity calls are given as the source filed them. Cut-off read from the data, not from the text of the source: active = GI50 up to about 1.1 µM and inactive = higher.

What was measured:
Test in all cases: DTP human tumour cell line panel, 48 h
NCI/ADR-RES = tested on: NCI/ADR-RES
SF-295 = tested on: SF-295
CCRF-CEM = tested on: CCRF-CEM
M14 = tested on: M14
RXF 393 = tested on: RXF 393
NCI-H522 = tested on: NCI-H522
SR = tested on: SR
SK-MEL-5 = tested on: SK-MEL-5
NCI-H23 = tested on: NCI-H23
RPMI-8226 = tested on: RPMI-8226
DU-145 = tested on: DU-145
SK-MEL-28 = tested on: SK-MEL-28
NCI-H226 = tested on: NCI-H226
HCT-15 = tested on: HCT-15
LOX IMVI = tested on: LOX IMVI
SNB-75 = tested on: SNB-75
SN12C = tested on: SN12C
HT-29 = tested on: HT-29
A498 = tested on: A498
K562 = tested on: K562

SMILES	GI50 (NCI/ADR-RES)	GI50 (SF-295)	GI50 (CCRF-CEM)	GI50 (M14)	GI50 (RXF 393)	GI50 (NCI-H522)	GI50 (SR)	GI50 (SK-MEL-5)	GI50 (NCI-H23)	GI50 (RPMI-8226)	GI50 (DU-145)	GI50 (SK-MEL-28)	GI50 (NCI-H226)	GI50 (HCT-15)	GI50 (LOX IMVI)	GI50 (SNB-75)	GI50 (SN12C)	GI50 (HT-29)	GI50 (A498)	GI50 (K562)
CC(=O)N(C)c1ccc(Nc2ccnc3ccc4nn(C)nc4c23)cc1	28.1 µM (inactive)	21.8 µM (inactive)	17.3 µM (inactive)	31.4 µM (inactive)	16.9 µM (inactive)	19 µM (inactive)	25.6 µM (inactive)	19.9 µM (inactive)	32.4 µM (inactive)	20.3 µM (inactive)	28.6 µM (inactive)	20.7 µM (inactive)	15.6 µM (inactive)	21.5 µM	16 µM (inactive)	21.3 µM (inactive)	26 µM (inactive)	29.4 µM (inactive)		
CC(=NNC(=S)Nc1ccccc1C)c1cccc(C(C)=NNC(=S)Nc2ccccc2C)n1	18.6 µM (inactive)	8.93 µM (inactive)	3.59 µM (inactive)	15.8 µM (inactive)	13.4 µM (inactive)		0.262 µM (active)	1.3 µM (inactive)	65.3 µM (inactive)	> 100 µM (inactive)	23.1 µM (inactive)	13 µM (inactive)	9.73 µM (inactive)	8.63 µM	6.9 µM (inactive)	2.36 µM (inactive)	44.6 µM (inactive)	39 µM (inactive)	> 100 µM (inactive)	31.4 µM (inactive)
c1ccc(SC(Sc2ccccc2)c2ccc3c(c2)OCO3)cc1	> 100 µM (inactive)	> 100 µM (inactive)	> 100 µM (inactive)	> 100 µM (inactive)	> 100 µM (inactive)	85.9 µM (inactive)	> 100 µM (inactive)	> 100 µM (inactive)	> 100 µM (inactive)		> 100 µM (inactive)	> 100 µM (inactive)	23.6 µM (inactive)	> 100 µM	> 100 µM (inactive)		> 100 µM (inactive)	65.2 µM (inactive)	90.2 µM (inactive)	> 100 µM (inactive)
COc1ccc2nc3c([N+](=O)[O-])ccc(NCCN(C)C)c3c(N)c2c1	0.847 µM (active)	1.75 µM (inactive)	0.17 µM (active)	1.49 µM (inactive)	1.57 µM (inactive)		0.679 µM (active)	1.81 µM (inactive)	1.69 µM (inactive)	0.0703 µM (active)	1.75 µM (inactive)	2.14 µM (inactive)	1.97 µM (inactive)	1.16 µM	0.537 µM (active)	1.08 µM (active)	1.33 µM (inactive)	0.508 µM (active)	2.07 µM (inactive)	0.223 µM (active)
O=S(=O)(N/N=C1\CC2CCC1C2)c1ccccc1 (stereo unspecified)	> 100 µM (inactive)	> 100 µM (inactive)	> 100 µM (inactive)	> 100 µM (inactive)		> 100 µM (inactive)	> 100 µM (inactive)	> 100 µM (inactive)	> 100 µM (inactive)	> 100 µM (inactive)	> 100 µM (inactive)	> 100 µM (inactive)	> 100 µM (inactive)	> 100 µM	> 100 µM (inactive)	> 100 µM (inactive)	> 100 µM (inactive)	> 100 µM (inactive)		> 100 µM (inactive)
CC(C)(C)OC(=O)CC(NC(=O)OC(C)(C)C)C(=O)NC(C(=O)O)C(O)c1ccccc1 (stereo unspecified)	> 100 µM (inactive)	> 100 µM (inactive)	51.4 µM (inactive)	> 100 µM (inactive)	57.9 µM (inactive)	> 100 µM (inactive)		56 µM (inactive)	> 100 µM (inactive)	70.1 µM (inactive)	> 100 µM (inactive)	> 100 µM (inactive)	13.9 µM (inactive)	> 100 µM	> 100 µM (inactive)	> 100 µM (inactive)		75.3 µM (inactive)	> 100 µM (inactive)	46.9 µM (inactive)
Cc1nnc2nc(-c3ccc(Cl)cc3Cl)cc(-c3ccc(Cl)cc3)n12	87.5 µM (inactive)	91.4 µM (inactive)	> 100 µM (inactive)	> 100 µM (inactive)			> 100 µM (inactive)	68.5 µM (inactive)	> 100 µM (inactive)	35.6 µM (inactive)	> 100 µM (inactive)	21 µM (inactive)	> 100 µM (inactive)	> 100 µM	> 100 µM (inactive)		> 100 µM (inactive)	20.5 µM (inactive)		50.4 µM (inactive)
CC(NO)/C(=N/O)c1ccco1 (stereo unspecified)	> 10 µM (inactive)	> 10 µM (inactive)	> 10 µM (inactive)	> 10 µM (inactive)	> 10 µM (inactive)	> 10 µM (inactive)	> 10 µM (inactive)		> 10 µM (inactive)	> 10 µM (inactive)	> 10 µM (inactive)		> 10 µM (inactive)	> 10 µM			> 10 µM (inactive)	> 10 µM (inactive)		> 10 µM (inactive)
